Here are results for six compounds from patent US20160271263A1 (Novo Nordisk A/S, priority 2010, published 2016).

In general, EC50 refers to the concentration that produces a half-maximal response. Read a high EC50 as lower potency in that assay.

Numbered stars: 1 amine (or outer) side, 2 acyl side, 3 side chain; on linkers, the order of the positions; unused ones are H or OH. Side chains are listed from the residue outwards. Peptide text beside a SMILES is read from it. * marks the point of attachment. C18 diacid = O=C(O)CCCCCCCCCCCCCCCCC(=O)*; γGlu = O=C(O)[C@H](CCC(=O)[*:2])N[*:1]; AEEA = NCCOCCOCC(=O)O

For the assay, the target named is glucagon receptor (Homo sapiens, UniProt P47871). Description: cell-based.
Chain of glucagon receptor (P47871 26-477): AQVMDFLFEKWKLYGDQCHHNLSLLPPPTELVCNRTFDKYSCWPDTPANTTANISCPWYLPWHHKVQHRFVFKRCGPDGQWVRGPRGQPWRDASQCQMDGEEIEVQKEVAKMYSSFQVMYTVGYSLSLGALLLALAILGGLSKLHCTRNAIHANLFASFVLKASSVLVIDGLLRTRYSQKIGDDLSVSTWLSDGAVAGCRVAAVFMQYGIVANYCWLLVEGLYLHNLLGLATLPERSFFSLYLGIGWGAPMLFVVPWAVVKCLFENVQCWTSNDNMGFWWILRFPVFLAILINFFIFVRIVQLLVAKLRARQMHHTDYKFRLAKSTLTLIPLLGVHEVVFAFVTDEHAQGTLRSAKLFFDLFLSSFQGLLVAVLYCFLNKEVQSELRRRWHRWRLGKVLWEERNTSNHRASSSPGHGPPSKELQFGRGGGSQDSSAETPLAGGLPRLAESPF
The compound `CC(C)C[C@H](NC(=O)[C@H](Cc1ccc(O)cc1)NC(=O)[C@H](CCCCN)NC(=O)[C@H](CO)NC(=O)[C@H](Cc1ccc(O)cc1)NC(=O)[C@H](CC(=O)O)NC(=O)[C@H](CO)NC(=O)[C@@H](NC(=O)[C@H](Cc1ccccc1)NC(=O)[C@@H](NC(=O)CNC(=O)[C@H](CCC(N)=O)NC(=O)[C@H](CO)NC(=O)[C@@H](N)Cc1c[nH]cn1)[C@@H](C)O)[C@@H](C)O)C(=O)N[C@@H](CC(=O)O)C(=O)N[C@@H](CO)C(=O)N[C@@H](CCCNC(=N)N)C(=O)N[C@@H](CCCNC(=N)N)C(=O)N[C@@H](C)C(=O)N[C@@H](CCC(N)=O)C(=O)N[C@@H](CC(=O)O)C(=O)N[C@@H](Cc1ccccc1)C(=O)N[C@H](C(=O)N[C@@H](CCCCNC(=O)CC[C@H](NC(=O)COCCOCCNC(=O)COCCOCCNC(=O)CC[C@H](NC(=O)CC[C@H](NC(=O)CCCCCCCCCCCCCCCCC(=O)O)C(=O)O)C(=O)O)C(=O)O)C(=O)N[C@@H](Cc1c[nH]c2ccccc12)C(=O)N[C@@H](CC(C)C)C(=O)N[C@@H](CC(C)C)C(=O)N[C@@H](CO)C(=O)N[C@H](C(=O)O)[C@@H](C)O)C(C)C` [Example 68, N^ε24-[(4S)-4-carboxy-4-[[2-[2-[2-[[2-[2-[2-[[(4S)-4-carboxy-4-[[(4S)-4-carboxy-4-(17-carboxyheptadecanoylamino)butanoyl]amino]butanoyl]amino]ethoxy]ethoxy]acetyl]amino]ethoxy]ethoxy]acetyl]amino]butanoyl]-[Lys^24,Leu^27,Ser^28]-Glucagon] displayed an EC50 of 0.106 nM.
Regarding `CC(C)C[C@H](NC(=O)[C@H](Cc1ccc(O)cc1)NC(=O)[C@H](CCCCN)NC(=O)[C@H](CO)NC(=O)[C@H](Cc1ccc(O)cc1)NC(=O)[C@H](CC(=O)O)NC(=O)[C@H](CO)NC(=O)[C@@H](NC(=O)[C@H](Cc1ccccc1)NC(=O)[C@@H](NC(=O)CNC(=O)[C@H](CCC(N)=O)NC(=O)[C@H](CO)NC(=O)[C@@H](N)Cc1c[nH]cn1)[C@@H](C)O)[C@@H](C)O)C(=O)N[C@@H](CC(=O)O)C(=O)N[C@@H](CO)C(=O)N[C@@H](CCCNC(=N)N)C(=O)N[C@@H](CCCNC(=N)N)C(=O)N[C@@H](C)C(=O)N[C@@H](CCC(N)=O)C(=O)N[C@@H](CC(=O)O)C(=O)N[C@@H](Cc1ccccc1)C(=O)N[C@H](C(=O)N[C@@H](CCCCNC(=O)COCCOCCNC(=O)COCCOCCNC(=O)CC[C@H](NC(=O)CC[C@H](NC(=O)CC[C@H](NC(=O)CCCCCCCCCCCCCCCCC(=O)O)C(=O)O)C(=O)O)C(=O)O)C(=O)N[C@@H](Cc1c[nH]c2ccccc12)C(=O)N[C@@H](CC(C)C)C(=O)N[C@@H](CC(C)C)C(=O)N[C@@H](CO)C(=O)N[C@H](C(=O)O)[C@@H](C)O)C(C)C` [Example 69, N^ε24-[2-[2-[2-[[2-[2-[2-[[(4S)-4-carboxy-4-[[(4S)-4-carboxy-4-[[(4S)-4-carboxy-4-(17-carboxyheptadecanoylamino)butanoyl]amino]butanoyl]amino]butanoyl]amino]ethoxy]ethoxy]acetyl]amino]ethoxy]ethoxy]acetyl]-[Lys^24,Leu^27,Ser^28]-Glucagon], the EC50 was 0.115 nM.
`CC(C)C[C@H](NC(=O)[C@H](Cc1ccc(O)cc1)NC(=O)[C@H](CCCCN)NC(=O)[C@H](CO)NC(=O)[C@H](Cc1ccc(O)cc1)NC(=O)[C@H](CC(=O)O)NC(=O)[C@H](CO)NC(=O)[C@@H](NC(=O)[C@H](Cc1ccccc1)NC(=O)[C@@H](NC(=O)CNC(=O)[C@H](CCC(N)=O)NC(=O)[C@H](CO)NC(=O)[C@@H](N)Cc1c[nH]cn1)[C@@H](C)O)[C@@H](C)O)C(=O)N[C@@H](CC(=O)O)C(=O)N[C@@H](CCCCNC(=O)CC[C@H](NC(=O)CC[C@H](NC(=O)COCCOCCNC(=O)COCCOCCNC(=O)CC[C@H](NC(=O)CCCCCCCCCCCCCCCCC(=O)O)C(=O)O)C(=O)O)C(=O)O)C(=O)N[C@@H](CCCNC(=N)N)C(=O)N[C@@H](CCCNC(=N)N)C(=O)N[C@@H](C)C(=O)N[C@@H](CCC(N)=O)C(=O)N[C@@H](CC(=O)O)C(=O)N[C@@H](Cc1ccccc1)C(=O)N[C@H](C(=O)N[C@@H](CCC(N)=O)C(=O)N[C@@H](Cc1c[nH]c2ccccc12)C(=O)N[C@@H](CC(C)C)C(=O)N[C@@H](CC(C)C)C(=O)N[C@@H](CC(N)=O)C(=O)N[C@H](C(=O)O)[C@@H](C)O)C(C)C` [Example 70, N^ε16-[(4S)-4-carboxy-4-[[(4S)-4-carboxy-4-[[2-[2-[2-[[2-[2-[2-[[(4S)-4-carboxy-4-(17-carboxyheptadecanoylamino)butanoyl]amino]ethoxy]ethoxy]acetyl]amino]ethoxy]ethoxy]acetyl]amino]butanoyl]amino]butanoyl]-[Lys^16,Leu^27]-Glucagon] (H-HSQGTFTSDYSKYLDK([γGlu-γGlu-AEEA-AEEA-γGlu-C18 diacid])RRAQDFVQWLLNT-OH; N-terminus and C-terminus assumed) showed an EC50 of 0.105 nM. This EC50 and that of the compound before are within 1.5-fold of each other.
Compound `CC(C)C[C@H](NC(=O)[C@H](Cc1ccc(O)cc1)NC(=O)[C@H](CCCNC(=N)N)NC(=O)[C@H](CO)NC(=O)[C@H](Cc1ccc(O)cc1)NC(=O)[C@H](CC(=O)O)NC(=O)[C@H](CO)NC(=O)[C@@H](NC(=O)[C@H](Cc1ccccc1)NC(=O)[C@@H](NC(=O)CNC(=O)[C@H](CCC(N)=O)NC(=O)[C@H](CO)NC(=O)[C@@H](N)Cc1c[nH]cn1)[C@@H](C)O)[C@@H](C)O)C(=O)N[C@@H](CC(=O)O)C(=O)N[C@@H](CO)C(=O)N[C@@H](CCCNC(=N)N)C(=O)N[C@@H](CCCNC(=N)N)C(=O)N[C@@H](C)C(=O)N[C@@H](CCC(N)=O)C(=O)N[C@@H](CC(=O)O)C(=O)N[C@@H](Cc1ccccc1)C(=O)N[C@H](C(=O)N[C@@H](CCCCNC(=O)CC[C@H](NC(=O)CC[C@H](NC(=O)COCCOCCNC(=O)COCCOCCNC(=O)CC[C@H](NC(=O)CCCCCCCCCCCCCCCCC(=O)O)C(=O)O)C(=O)O)C(=O)O)C(=O)N[C@@H](Cc1c[nH]c2ccccc12)C(=O)N[C@@H](CC(C)C)C(=O)N[C@@H](CC(C)C)C(=O)N[C@@H](CC(N)=O)C(=O)N[C@H](C(=O)O)[C@@H](C)O)C(C)C` [Example 72, N^ε24-[(4S)-4-carboxy-4-[[(4S)-4-carboxy-4-[[2-[2-[2-[[2-[2-[2-[[(4S)-4-carboxy-4-(17-carboxyheptadecanoylamino)butanoyl]amino]ethoxy]ethoxy]acetyl]amino]ethoxy]ethoxy]acetyl]amino]butanoyl]amino]butanoyl]-[Arg^12,Lys^24,Leu^27]-Glucagon] (H-HSQGTFTSDYSRYLDSRRAQDFVK([γGlu-γGlu-AEEA-AEEA-γGlu-C18 diacid])WLLNT-OH; N-terminus and C-terminus assumed) gave an EC50 of 0.127 nM.
Take `CC(C)C[C@H](NC(=O)[C@H](Cc1ccc(O)cc1)NC(=O)[C@H](CCCCN)NC(=O)[C@H](CO)NC(=O)[C@H](Cc1ccc(O)cc1)NC(=O)[C@H](CC(=O)O)NC(=O)[C@H](CO)NC(=O)[C@@H](NC(=O)[C@H](Cc1ccccc1)NC(=O)[C@@H](NC(=O)CNC(=O)[C@H](CCC(N)=O)NC(=O)[C@H](CO)NC(=O)[C@@H](N)Cc1c[nH]cn1)[C@@H](C)O)[C@@H](C)O)C(=O)N[C@@H](CC(=O)O)C(=O)N[C@@H](CO)C(=O)N[C@@H](CCCNC(=N)N)C(=O)N[C@@H](CCCNC(=N)N)C(=O)N[C@@H](C)C(=O)N[C@@H](CCC(N)=O)C(=O)N[C@@H](CC(=O)O)C(=O)N[C@@H](Cc1ccccc1)C(=O)N[C@H](C(=O)N[C@@H](CCC(N)=O)C(=O)N[C@@H](CCCCNC(=O)CC[C@H](NC(=O)CC[C@H](NC(=O)COCCOCCNC(=O)COCCOCCNC(=O)CC[C@H](NC(=O)CCCCCCCCCCCCCCCCC(=O)O)C(=O)O)C(=O)O)C(=O)O)C(=O)N[C@@H](CC(C)C)C(=O)N[C@@H](CC(C)C)C(=O)N[C@@H](CC(N)=O)C(=O)N[C@H](C(=O)O)[C@@H](C)O)C(C)C` [Example 76, N^ε25-[(4S)-4-carboxy-4-[[(4S)-4-carboxy-4-[[2-[2-[2-[[2-[2-[2-[[(4S)-4-carboxy-4-(17-carboxyheptadecanoylamino)butanoyl]amino]ethoxy]ethoxy]acetyl]amino]ethoxy]ethoxy]acetyl]amino]butanoyl]amino]butanoyl]-[Lys^25,Leu^27]-Glucagon]: the response was half-maximal at 0.988 nM (EC50).
The compound `CC(C)C[C@H](NC(=O)[C@H](Cc1ccc(O)cc1)NC(=O)[C@H](CCCCN)NC(=O)[C@H](CO)NC(=O)[C@H](Cc1ccc(O)cc1)NC(=O)[C@H](CC(=O)O)NC(=O)[C@H](CO)NC(=O)[C@@H](NC(=O)[C@H](Cc1ccccc1)NC(=O)[C@@H](NC(=O)CNC(=O)[C@H](CCC(N)=O)NC(=O)[C@H](CO)NC(=O)[C@@H](N)Cc1c[nH]cn1)[C@@H](C)O)[C@@H](C)O)C(=O)N[C@@H](CC(=O)O)C(=O)N[C@@H](CCCCNC(=O)COCCOCCNC(=O)COCCOCCNC(=O)CC[C@H](NC(=O)CC[C@H](NC(=O)CC[C@H](NC(=O)CCCCCCCCCCCCCCCCC(=O)O)C(=O)O)C(=O)O)C(=O)O)C(=O)N[C@@H](CCCNC(=N)N)C(=O)N[C@@H](CCCNC(=N)N)C(=O)N[C@@H](C)C(=O)N[C@@H](CCC(N)=O)C(=O)N[C@@H](CC(=O)O)C(=O)N[C@@H](Cc1ccccc1)C(=O)N[C@H](C(=O)N[C@@H](CCC(N)=O)C(=O)N[C@@H](Cc1c[nH]c2ccccc12)C(=O)N[C@@H](CC(C)C)C(=O)N[C@@H](CC(C)C)C(=O)N[C@@H](CC(N)=O)C(=O)N[C@H](C(=O)O)[C@@H](C)O)C(C)C` [Example 77, N^ε16-[2-[2-[2-[[2-[2-[2-[[(4S)-4-carboxy-4-[[(4S)-4-carboxy-4-[[(4S)-4-carboxy-4-(17-carboxyheptadecanoylamino)butanoyl]amino]butanoyl]amino]butanoyl]amino]ethoxy]ethoxy]acetyl]amino]ethoxy]ethoxy]acetyl]-[Lys^16,Leu^27]-Glucagon] (H-HSQGTFTSDYSKYLDK([AEEA-AEEA-γGlu-γGlu-γGlu-C18 diacid])RRAQDFVQWLLNT-OH; N-terminus and C-terminus assumed) yielded an EC50 of 0.081 nM.
